Here are results for 21 molecules from ChEMBL document CHEMBL4177767, “Discovery of N2-(4-Amino-cyclohexyl)-9-cyclopentyl- N6-(4-morpholin-4-ylmethyl-phenyl)- 9H-purine-2,6-diamine as a Potent FLT3 Kinase Inhibitor for Acute Myeloid Leukemia with FLT3 Mutations” (J Med Chem, 2018).

Bounds are passed on as bounds.

One assay relates to MV4-11. As to the kind of experiment: Growth inhibition of human MV4-11 cells after 72 hrs by calcein AM dye-based fluorescence assay. Format: functional. The following applies: MV4-11, 72 h.
The next assay concerns K562. As to the kind of experiment: cells. The following applies: Homo sapiens, K562, 72 h.
For assay [1], the target named is Receptor-type tyrosine-protein kinase FLT3 (Homo sapiens, UniProt P36888, ITD). As to the kind of experiment: biochemical. It is filed as cell-based, Sf9.
Chain of Receptor-type tyrosine-protein kinase FLT3 (P36888 whole entry, looked up, change not shown): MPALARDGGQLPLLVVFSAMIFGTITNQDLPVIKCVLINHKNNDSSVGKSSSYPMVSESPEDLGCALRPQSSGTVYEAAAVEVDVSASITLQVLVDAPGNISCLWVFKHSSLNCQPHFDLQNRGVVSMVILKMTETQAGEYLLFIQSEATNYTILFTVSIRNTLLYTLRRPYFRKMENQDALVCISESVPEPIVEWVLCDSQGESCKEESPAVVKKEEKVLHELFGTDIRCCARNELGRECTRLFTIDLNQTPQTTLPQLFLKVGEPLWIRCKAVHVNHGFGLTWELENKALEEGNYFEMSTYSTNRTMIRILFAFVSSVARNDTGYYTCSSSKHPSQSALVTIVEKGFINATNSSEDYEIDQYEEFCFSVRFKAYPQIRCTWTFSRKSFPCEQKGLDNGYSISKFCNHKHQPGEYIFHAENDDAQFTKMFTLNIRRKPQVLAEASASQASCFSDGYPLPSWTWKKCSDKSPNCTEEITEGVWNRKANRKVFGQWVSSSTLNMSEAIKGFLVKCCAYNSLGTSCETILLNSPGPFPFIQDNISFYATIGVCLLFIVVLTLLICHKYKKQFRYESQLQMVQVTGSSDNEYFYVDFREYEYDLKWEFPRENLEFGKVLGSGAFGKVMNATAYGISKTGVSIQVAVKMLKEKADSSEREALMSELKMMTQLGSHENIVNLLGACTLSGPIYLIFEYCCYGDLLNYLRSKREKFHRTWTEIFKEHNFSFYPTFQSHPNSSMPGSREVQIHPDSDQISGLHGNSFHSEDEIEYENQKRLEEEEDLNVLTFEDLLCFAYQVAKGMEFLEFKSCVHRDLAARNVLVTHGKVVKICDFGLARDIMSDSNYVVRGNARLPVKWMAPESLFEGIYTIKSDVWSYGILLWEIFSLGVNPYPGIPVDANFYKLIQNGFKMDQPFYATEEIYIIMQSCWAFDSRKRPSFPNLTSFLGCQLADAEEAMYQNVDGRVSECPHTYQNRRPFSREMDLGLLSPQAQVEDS
Description: Inhibition of N-terminal GST/His6-fused recombinant human FLT3 (R571 to S993 residues) ITD mutant expressed in Sf9 insect cells using poly (Ala,Glu,Lys,Tyr) 6:2:5:1 hydrobromide as substrate in presence of [gamma-33P]ATP

With `CC(O)CNc1nc(Nc2ccc(Cl)cc2)c2ncn(C3CCCC3)c2n1` (stereo not drawn), the 50% growth inhibitory concentration (GI50) (in general, the concentration at which growth is held to half of that of the control) in the assay on MV4-11 is 235 nM; in the assay with K562 it was 10900 nM. Also, the IC50 (commonly the concentration that inhibits the measured activity by half) in assay [1] is 1720 nM.
Consider `COc1ccc(CNc2nc(Nc3ccc(CN4CCOCC4)cc3)c3ncn(C4CCCC4)c3n2)cc1`, for which the results for the 50% growth inhibitory concentration (GI50) with MV4-11 and in the assay on K562 were 892 nM and 6690 nM, respectively. Further, the IC50 in assay [1] amounted to 209 nM.
For `N[C@H]1CC[C@H](Nc2nc(Nc3ccc(Br)cc3)c3ncn(Cc4ccccc4)c3n2)CC1` the same measures were 2290 nM, 3070 nM and 798 nM.
In the case of `Brc1ccc(Nc2nc(N3CCOCC3)nc3c2ncn3C2CCCCO2)cc1` (stereo not drawn), the 50% growth inhibitory concentration (GI50) was 3880 nM in the assay with MV4-11 and 3740 nM in the assay with K562. In assay [1], this molecule registered an IC50 of 1200 nM.
As to `N[C@H]1CC[C@H](Nc2nc(Nc3ccc(Br)cc3)c3ncn(C4CCCCO4)c3n2)CC1` (stereo partly drawn), the 50% growth inhibitory concentration (GI50) in the assay with MV4-11 is 181 nM; in the assay with K562, 5170 nM. In assay [1], this molecule gave an IC50 of 70 nM.
On to `c1cc(Nc2nc(N3CCCCC3)nc3c2ncn3C2CCCC2)ccc1CN1CCOCC1`, for which the 50% growth inhibitory concentration (GI50) with MV4-11 was 701 nM; with K562, 11000 nM. The molecule also showed an IC50 in assay [1] of 50 nM.
As for `N[C@H]1CC[C@H](Nc2nc(Nc3ccc(N4CCOCC4)nc3)c3ncn(C4CCCC4)c3n2)CC1`, the GI50 is 4 nM in the assay on MV4-11 and 1300 nM in the assay with K562. Also, half-maximal inhibition in assay [1] (IC50) required 4 nM.
As for `N[C@H]1CC[C@H](Nc2nc(Nc3ccc(N4CCN(Cc5ccccc5)CC4)cc3)c3ncn(C4CCCC4)c3n2)CC1`, the 50% growth inhibitory concentration (GI50) was 17 nM with MV4-11 and 700 nM with K562. The midpoint of inhibition in assay [1], the IC50, lay at 6 nM.
As for `N[C@H]1CC[C@H](Nc2nc(Nc3ccc(Cl)cc3)c3ncn(C4CCCC4)c3n2)CC1`, the GI50 with MV4-11 is 21 nM; with K562, 840 nM. The half-inhibitory concentration (IC50) in assay [1] amounted to 5 nM.
On to `OCCCCNc1nc(Nc2ccc(CN3CCOCC3)cc2)c2ncn(C3CCCC3)c2n1`, for which the GI50 was 83 nM in the assay on MV4-11 and 1450 nM with K562. This molecule also had an IC50 in assay [1] of 18 nM.
As to `CC(O)CNc1nc(Nc2ccc(Br)cc2)c2ncn(Cc3ccccc3)c2n1` (stereo not drawn), the GI50 with MV4-11 was more than 4000 nM; with K562, 9450 nM. Further, in assay [1], half-maximal inhibition (IC50) required 9850 nM.
For the molecule `CC(O)CNc1nc(Nc2ccc(Br)cc2)c2ncn(C3CCCCO3)c2n1` (stereo not drawn), the GI50 in the assay on MV4-11 is 2430 nM; with K562 it was 27900 nM. The IC50 in assay [1] was 1140 nM.
For the molecule `c1cc(Nc2nc(N3CCOCC3)nc3c2ncn3C2CCCC2)ccc1CN1CCOCC1`, the concentration for 50% growth inhibition (GI50) in the assay on MV4-11 was 61 nM; in the assay with K562 it was 4470 nM. The molecule further registered a 50% inhibitory concentration (IC50) in assay [1] of 19 nM.
For `CC(O)CNc1nc(Nc2ccc(Br)cc2)c2ncn(C3CCCC3)c2n1` (stereo not drawn), the 50% growth inhibitory concentration (GI50) in the assay with MV4-11 is 444 nM; in the assay with K562 it was more than 25000 nM. Further, in assay [1], it took 628 nM to reach half-maximal inhibition (IC50).
For `OCCCNc1nc(Nc2ccc(CN3CCOCC3)cc2)c2ncn(C3CCCC3)c2n1` the same measures were 157 nM, 2350 nM and 47 nM.
Consider `CN1CCN(c2nc(Nc3ccc(Br)cc3)c3ncn(Cc4ccccc4)c3n2)CC1`, for which the GI50 is more than 4000 nM in the assay on MV4-11 and 3800 nM with K562. Besides, in assay [1], the 50% inhibitory concentration (IC50) was more than 20000 nM.
For `CC(O)CNc1nc(Nc2ccc(Br)cc2)c2ncn(C(C)C)c2n1` (stereo not drawn), the GI50 in the assay on MV4-11 was 1500 nM; in the assay on K562 it was 17800 nM. The IC50 in assay [1] stood at 591 nM.
Turning to `OCCNc1nc(Nc2ccc(CN3CCOCC3)cc2)c2ncn(C3CCCC3)c2n1`, the values for the GI50 in the assay on MV4-11 and in the assay on K562 were 110 nM and 2000 nM, respectively. Besides, it took 29 nM to reach half-maximal inhibition in assay [1] (IC50).
`c1cc(N2CCOCC2)ncc1Nc1nc(N2CCOCC2)nc2c1ncn2C1CCCC1`: the GI50 with MV4-11 is 70 nM; with K562, more than 25000 nM. Besides, it took 71 nM to reach half-maximal inhibition in assay [1] (IC50).
On to `CC(C)n1cnc2c(Nc3ccc(Br)cc3)nc(N[C@H]3CC[C@H](N)CC3)nc21`, for which the concentration for 50% growth inhibition (GI50) was 7 nM in the assay on MV4-11 and 1170 nM in the assay with K562. In assay [1], this molecule yielded a 50% inhibitory concentration (IC50) of 10 nM.
With `Brc1ccc(Nc2nc(N3CCOCC3)nc3c2ncn3Cc2ccccc2)cc1`, the concentration for 50% growth inhibition (GI50) with MV4-11 is more than 4000 nM; in the assay on K562 it was more than 12500 nM. The IC50 in assay [1] is more than 20000 nM.
